T1: N-methyl-L-phenylalanine dehydrogenase (Pseudomonas putida, UniProt Q5FB93)
T1 construct: made in house
T1 sequence (Q5FB93 whole entry, looked up): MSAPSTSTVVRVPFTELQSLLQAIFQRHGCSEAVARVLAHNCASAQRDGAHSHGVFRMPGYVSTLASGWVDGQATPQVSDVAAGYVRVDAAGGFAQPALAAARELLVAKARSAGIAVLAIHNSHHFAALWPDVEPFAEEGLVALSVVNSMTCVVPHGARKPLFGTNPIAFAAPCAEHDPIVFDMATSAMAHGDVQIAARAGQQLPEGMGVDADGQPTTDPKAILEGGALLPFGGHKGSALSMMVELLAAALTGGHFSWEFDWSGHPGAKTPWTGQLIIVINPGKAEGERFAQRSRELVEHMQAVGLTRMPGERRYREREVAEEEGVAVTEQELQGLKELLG

T2: present dehydrogenase (Pseudomonas putida, UniProt Q5FB93)
T2 construct: made in house; host or cells: Escherichia coli BL21 (DE3) carrying pENMadh and pSTV28-GDH; crude cellular extract
T2 sequence (Q5FB93 1-341): T1 sequence (Q5FB93 whole entry, looked up)

B1: present enzyme: novel dehydrogenase from Pseudomonas putida ATCC 12633, polypeptide of SEQ ID No. 1 (protein, listed as Pseudomonas putida)
chain: T1 sequence (Q5FB93 whole entry, looked up)

Experiments:
Type in all cases: biochemical, Pseudomonas putida ATCC 12633
[1] = molecular target: T3, N-methyl-L-phenylalanine dehydrogenase (Pseudomonas putida, UniProt Q5FB93); assay: Substrate specificity for keto acids with NADPH as coenzyme (Example 6); details: keto acid 10 mM, NADPH 0.2 mM, methylamine pH 10 60 mM, 37° C.; β-phenylpyruvic acid = 100%
T3 construct: made in house
Description: (§1) Purified form of the present enzyme was obtained from cloned Escherichia coli cells in the same way as in Example 5.
Enzyme activity was measured by adding thereto various keto acids shown in Table 3 to a final concentration of 10 mM, NADPH to a final concentration of 0.2 mM, and methylamine adjusted to pH 10 with sulfuric acid to a final concentration of 60 mM, and examining the change in absorbance of the reaction mixture at 340 nm. The reaction temperature during measurement was 37° C. Defining the activity of the enzyme when β-phenylpyruvic acid was used as the substrate as 100%, the results are shown in Table 3 for relative activity.

[2] = molecular target: T3, N-methyl-L-phenylalanine dehydrogenase; assay: Substrate specificity for keto acids with NADH as coenzyme (Example 11); details: keto acid 40 mM (β-phenylpyruvic acid 30 mM), NADH 0.3 mM, methylamine 180 mM, pH 10.0, 37° C.; pyruvic acid = 100%
Description: as §1
Enzyme activity was measured by adding thereto various keto acids shown in Table 4 to a final concentration of 40 mM (except for β-phenylpyruvic acid, which was 30 mM), NADH to a final concentration of 0.3 mM, bis-Tris propane buffer (pH 10.0) to a final concentration of 100 mM, and methylamine to a final concentration of 180 mM, and examining the change in absorbance of the reaction solution at 340 nm. The reaction temperature during measurement was 37° C.

[3] = molecular target: dehydrogenase represented by the amino acid sequence of SEQ ID No. 1 (Pseudomonas putida, UniProt Q5FB93); assay: Inhibition of dehydrogenase activity by divalent heavy metals; details: 0.01 mM
[4] = molecular target: T3, N-methyl-L-phenylalanine dehydrogenase; assay: Substrate specificity for amines with NADPH as coenzyme (Example 14)
Description: as §1
Enzyme activity was measured by adding thereto various amines shown in Table 5 to a final concentration of 60 mM, NADPH to a final concentration of 0.2 mM, and β-phenylpyruvic acid to a final concentration of 10 mM, and examining the change in absorbance of the reaction solution at 340 nm. The reaction temperature during measurement was 37° C.

[5] = molecular target: T3, N-methyl-L-phenylalanine dehydrogenase; assay: Reverse reaction with NAD as coenzyme (Example 13); details: N-methyl-L-alanine 50 mM, NAD 10 mM, pH 10.0, 37° C.
Description: as §1
Enzyme activity was measured by adding thereto N-methyl-L-alanine to a final concentration of 50 mM, NAD to a final concentration of 10 mM, and bis-Tris propane buffer (pH 10.0) to a final concentration of 100 mM, and examining the change in absorbance of the reaction mixture at 340 nm. The reaction temperature during measurement was 37° C. The activity was 7.8×10^−3 (u/mg of protein).

[6] = molecular target: T1, N-methyl-L-phenylalanine dehydrogenase; assay: Optimal working temperature for the enzyme (Example 8); details: phenylpyruvic acid and methylamine as substrates, pH 10; listed as dehydrogenase represented by the amino acid sequence of SEQ ID No. 1
Description: Activity was measured using the same reaction conditions as in Example 6 and with methylamine-sulfuric acid (pH 10), except that the temperature was varied. The optimal temperature was 30 to 40° C.

present dehydrogenase = molecular target: T2, present dehydrogenase; assay: Activity of the present dehydrogenase in crude extract of co-expressing Escherichia coli (Example 18); details: crude cellular extract; pH 10.0, 0.2 mM NADPH, 30 mM methylamine, 10 mM sodium pyruvate, 30° C.
Description: Activity of the present dehydrogenase was measured in a reaction mixture containing 100 mM bis-trispropane buffer (pH 10.0), 0.2 mM NADPH, 30 mM methylamine, and 10 mM sodium pyruvate at 30° C. 1 U was defined as the amount of the enzyme capable of oxidizing 1 μmol of NADPH per minute under the above reaction conditions.

[7] = molecular target: T1, N-methyl-L-phenylalanine dehydrogenase; assay: Measurement of optimal pH, NADPH (Example 7); details: phenylpyruvic acid and methylamine as substrates, 37° C.
Description: as §1
Enzyme activity was measured by adding thereto β-phenylpyruvic acid to a final concentration of 10 mM, NADPH to a final concentration of 0.2 mM, and methylamine adjusted to various pH values with sulfuric acid to a final concentration of 60 mM, and examining the change in absorbance of the reaction solution at 340 nm. The reaction temperature during measurement was 37° C. Defining the amount of enzyme that react with 1 micromole of β-phenylpyruvic acid per minute as 1 unit, the results are shown in FIG. 1 for the relationship between the number of units per protein amount (u/mg) and pH. The optimal pH of the reaction was 10.0.

[8] = molecular target: T1, N-methyl-L-phenylalanine dehydrogenase; assay: Thermal stability of the enzyme (Example 10)
Description: The purified enzyme obtained in Example 5 was left at 25° C., 30° C., 35° C., 40° C., 45° C., and 50° C. for 30 minutes, and then measured for activity as in Example 7. The results are shown in FIG. 4 as remaining activity, with the activity of the untreated enzyme (left in ice) defined as 100.

[9] = molecular target: T1, N-methyl-L-phenylalanine dehydrogenase; assay: Measurement of optimal pH when NADH is the coenzyme (Example 12); details: pyruvic acid 80 mM, NADH 0.3 mM, methylamine 180 mM, 37° C.
Description: as §1
Enzyme activity was measured by adding thereto pyruvic acid to a final concentration of 80 mM, NADH to a final concentration of 0.3 mM, and methylamine adjusted to various pH values with sulfuric acid to a final concentration of 180 mM, and examining the change in absorbance of the reaction mixture at 340 nm. The reaction temperature during measurement was 37° C. […] The optimal pH of the reaction was 9.5.

[10] = amine 60 mM, NADPH 0.2 mM, β-phenylpyruvic acid 10 mM, 37° C., methylamine = 100%

Molecule | Relative activity [1] [%] | Relative activity [2] [%] | Relative activity [4, 10] [%] | also measured
O=C(O)C(=O)CF [β-fluoropyruvic acid] | 90 | 4.2 | – | –
[Cl][Cu][Cl] [copper chloride (CuCl2), copper chloride] | – | – | – | effect on dehydrogenase activity [3]: inhibited
CC(C)N [isopropylamine] | – | – | 1.5 | –
CCCN [N-propylamine] | – | – | 1.1 | –
[Cl][Hg][Cl] [mercury chloride (HgCl2), mercury chloride] | – | – | – | effect on dehydrogenase activity [3]: inhibited
CCN [ethylamine] | – | – | 1.5 | –
N [ammonium] | – | – | – | Relative activity [4]: 0%
CCCC(=O)C(=O)O [2-keto-n-valeric acid] | 53 | 7.5 | – | –
CC(=O)C(=O)O [pyruvic acid] | 334 | 100 | – | –
CCCCC(=O)C(=O)O [2-ketohexanoic acid] | 174 | 20 | – | –
NC1CCCCC1 [cyclohexanamine] | – | – | 1.3 | –
CCCCCCC(=O)C(=O)O [2-ketooctanoic acid] | 25 | – | – | –
CN[C@@H](C)C(=O)O [N-methyl-L-alanine] | – | – | – | activity (reverse reaction) [5]: 7.8×10^−3 u/mg of protein
CN [methylamine] | – | – | 100 | –
O=C(O)C(=O)Cc1ccccc1 [phenylpyruvic acid] | 100 | 0 | – | –
CCC(=O)C(=O)O [2-ketobutyric acid] | 98 | 15 | – | –
CNC [dimethylamine] | – | – | 1.4 | –
B1 | – | – | – | optimal temperature [6]: around 35 °C; activity of the present dehydrogenase (present dehydrogenase): 6.6 U/mg of protein; optimal pH [7]: 10.0; optimal pH ([7]; listed as dehydrogenase of the present invention): around 10; remaining activity ([8]; left 30 minutes, up to 30° C., untreated enzyme = 100): 100%; temperature of thermal stability ([8]; treated at optimal pH (pH 10) for 30 minutes): < 30 °C; optimal pH [9]: 9.5
